Measurements as given in patent publication US20230414564A1, “BLUE LIGHT OXIDATION INHIBITOR AND SCREENING METHOD FOR SAME” (SHISEIDO COMPANY, LTD., priority 2020, published 2023).
“Also recorded” adds a separate entry of the source.

Key:
[1] = UPE count method (in vitro), linoleic acid mixture irradiated with blue light or UVA; settings: for blue light oxidation-inhibiting effect (rate of change in blue light-induced UPE): 5 wt % aqueous solution of candidate in linoleic acid mixture, blue light 430 nm LED 6 mW/cm^2, 10 minutes, UPE integrated for 300 seconds; for inhibiting effect against blue light oxidation compared with inhibiting effect against oxidation by UVA (UPE): linoleic acid mixture, blue light 430 nm vs UVA 300 to 400 nm
Method: The candidate substances listed in Table 1 were added to ultrapure water to prepare 5 wt % aqueous solutions as samples.
The samples were prepared by mixing the substances in the following compositions with linoleic acid and oleic acid as biological components. As a control, ultrapure water was used instead of a 5% aqueous solution of the candidate substance.
A 2 mL portion of the sample prepared by the method described above was added to a plastic container and irradiated with 6 mW/cm^2 blue light (430 nm LED, CL-H1-430-9-1, Asahi Spectra Co., Ltd.) using an LED light source (CL-1501, Asahi Spectra Co., Ltd.), for a period of 10 minutes. The experiment was conducted while shielded, to exclude the effects of light of other wavelengths. For the control, ultrapure water was added instead of the starting material aqueous solution.
The irradiated sample was transferred to a quartz glass container and set in the black box of a photon counter (Tohoku Electronic Industrial Co.). Photon counting of UPE was initiated one minute after irradiation was complete. UPE was detected by a built-in photomultiplier tube (PMT, R2257P, Hamamatsu Photonics, K.K.) in the photon counter, with measurement being conducted while shielded.
The integrated value of UPE intensity for 300 seconds after the start of UPE measurement was determined and the rate of change in UPE was calculated by formula 2, to evaluate the oxidative stress inhibiting effect.
Rate of change in UPE=(UPE intensity of material added sample−UPE intensity of control sample (non-irradiated))−(UPE intensity of control sample−UPE intensity of control sample (non-irradiated)) Formula 2: […]

[2] = DPPH radical scavenging rate (DPPH Antioxidant Assay Kit); settings: 5 wt %, 1 wt % and 0.2 wt % aqueous solutions; 30 minutes at 25° C.; absorbance at 517 nm
Text: Methods for measuring oxidation inhibiting effects by radical scavenging rate evaluation are known. The present inventors therefore examined oxidation inhibiting effects of the aforementioned candidate substances at different concentrations, by the following procedure using a DPPH Antioxidant Assay Kit (Dojindo Laboratories).
The candidate substances of Example 1 were used as 5 wt %, 1 wt % and 0.2 wt % aqueous solutions. Blank 1, Blank 2, Sample and Sample Blank Solution listed in Table 3 were prepared by the manufacturer's protocol described in general below, and the radical scavenging rates were calculated.
• 1. Each candidate substance was loaded into a 96 well plate as a 5 wt %, 1 wt % or 0.2 wt % aqueous solution. • 2. Water was added to Blank 1 and Blank 2 at 20 μl each. • 3. Assay Buffer was added at 80 μl to each well. • 4. After adding 100 μl of ethanol to Blank 2 and the Sample blank, it was thoroughly mixed by pipetting. • After adding 100 μl of DPPH working solution to the sample and Blank1, it was thoroughly mixed by pipetting. • 6. The plate was incubated for 30 minutes at 25° C. in a dark environment. • 7. The absorbance at 517 nm was measured with a plate reader (Spectramax 250, Molecular Devices). • 8. The radical scavenging rate (%) of each sample was calculated by the following formula 3.
Radical scavenging rate (%)=[…]×100 Formula 3:
(ACS=Blank1−Blank2, AS=Sample−Sample Blank)

[3] = UPE count method (in vitro), linoleic acid mixture irradiated with blue light or UVA; settings: 5 wt % aqueous solution in linoleic acid mixture; UVA lamp 300 to 400 nm 3.5 mW/cm^2
[4] = system: human skin tissue; assay: Measurement of oxidative stress by UPE imaging on human skin tissue; settings: 20 μL of 5% aqueous solution on stratum corneum side, 40 minutes; blue light 430 nm 6 mW/cm^2, 10 minutes
Method: A 20 μL aqueous solution of 5% hypotaurine was applied to the center of the stratum corneum side of human skin tissue (KAC Co., dorsal region), and allowed to stand for 40 minutes while shielded.
After irradiation with blue light (430 nm LED, 6 mW/cm^2) for 10 minutes, the hypotaurine aqueous solution was wiped off and immediately observed by UPE imaging using a high-sensitivity cooled CCD camera (850S CCD42-40, Spectral Instruments Inc.), while shielded (photographing time: 10 minutes).

| Structure (SMILES) | blue light oxidation-inhibiting effect (rate of change in blue light-induced UPE) [1] | DPPH radical scavenging power (radical scavenging rate) [2] | blue light oxidation-inhibiting effect (rate of change in blue light-induced UPE) ([1]; listed as ascorbic acid glucoside) | blue light oxidation-inhibiting effect (rate of change in blue light-induced UPE) ([1]; listed as cysteine) | UV oxidation inhibiting effect (rate of change in UV light-induced UPE) [3] | UPE intensity after blue light irradiation (UPE imaging) [4] | inhibiting effect against blue light oxidation compared with inhibiting effect against oxidation by UVA (UPE) [1] |
| --- | --- | --- | --- | --- | --- | --- | --- |
| O=C1O[C@H]([C@@H](O)CO)C(O)=C1O [L(+)-ascorbic acid, L(+)-Ascorbic acid] | high blue light oxidation-inhibiting effect; also recorded: excellent blue light oxidation-inhibiting effects | high radical scavenging power | – | – | – | – | – |
| O=C1O[C@H]([C@@H](O)CO)C(O)=C1O[C@H]1O[C@H](CO)[C@@H](O)[C@H](O)[C@H]1O [L-ascorbic acid glucoside, L-Ascorbic acid glucoside, reference compound] | not found to have significant blue light oxidation-inhibiting effects | high radical scavenging power | little of the blue light oxidation-inhibiting effect | – | – | – | – |
| N[C@@H](CS)C(=O)O [L-cysteine, L-Cysteine, reference compound] | not found to have significant blue light oxidation-inhibiting effects | high radical scavenging power | – | little of the inhibiting effect against blue light oxidation | – | – | – |
| CC(C)(CO)[C@@H](O)C(=O)NCCC(=O)NCCSS(=O)(=O)[O-].CC(C)(CO)[C@@H](O)C(=O)NCCC(=O)NCCSS(=O)(=O)[O-].[Ca+2] [calcium pantetheine-S-sulfonate] | high blue light oxidation-inhibiting effect; also recorded: excellent blue light oxidation-inhibiting effects | High radical scavenging power was not observed | – | – | UV oxidation inhibiting effect was found | – | – |
| NCCS(=O)O [hypotaurine, Hypotaurine] | high inhibiting effect against blue light oxidation; also recorded: excellent blue light oxidation-inhibiting effects | high radical scavenging power | – | – | – | lowered | higher than the inhibiting effect against oxidation by UVA |
| NCCS(=O)(O)=S [thiotaurine, Thiotaurine] | high inhibiting effect against blue light oxidation; also recorded: excellent blue light oxidation-inhibiting effects | High radical scavenging power was not observed | – | – | – | – | higher than the inhibiting effect against oxidation by UVA |
